Experimental data reported in US10307404B1, “Ocular formulations for drug-delivery to the posterior segment of the eye” (priority 2013, dated 2019).
Values joined by “and” are separate entries in the source; they are usually repeats but may differ in a detail not shown here. Equal values may be shown once. Read-outs that look alike come from different tables or passages of the source.

What was measured:
[1] = parameters: species or system Dutch-Belted rabbits; conditions: rabbit, in vivo
Method: The ocular solution of Compound-I comprising cyclodextrin was prepared and tested in different groups of animals.

[2] = 1- to 5-day PK, topical ocular Compound-I formulations of Table 8A, 30 μL bilateral dose; assay type: in vivo, Dutch Belted rabbits
Method: On day 1, Groups 1, 2, 4-6, 8, 10, 11, 13, 15, and 17 received one dose (q.d.) for either one (1) or four (4) days.
Peripheral retina and peripheral choroid samples were assayed only for Groups 1-8, 12, 14, and 16 per study protocol.

[3] = 5-day PK, topical ocular Compound-I in hydroxypropyl-β-cyclodextrin solutions, 30 μL bilateral dose; assay type: in vivo, Dutch-Belted rabbits; conditions: for Average Concentration, Central Retina: LLOQ = 0.0218 μM
Method: All doses were administered with ±1 hour of the scheduled dose time, except on day 1 for Groups 1, 4, and 10. The first dose on day 1 was administered at 12:00 PM, and the second dose (for Groups 1 and 10) was administered approximately 4 hours after. This was due to delayed arrival of formulations. All other dosing for these groups was as scheduled. On day 1, Groups 4-8, and 11-12 received one dose (q.d.) for four (4) days. On days 1 through 4, Groups 1-3, and 9-10 received b.i.d. dosing approximately 8 hours apart for four (4) days.
Ocular sampling occurred one hour following the first daily dose on day 5 for all groups, except Groups 5b and 6b, where ocular sampling occurred 24 hours after the first daily dose on day 4.
Blood samples for plasma collection were obtained just prior to scheduled euthanasia for all animals. […] Cornea, central retina, and central choroid samples from groups 1-12 were assayed. Aqueous humor, peripheral retina, and peripheral choroid samples were not assayed.

Solubility = assay type: physicochemical
[4] = parameters: species or system Dutch-Belted rabbits and beagle dogs; conditions: Dutch-belted, beagle, rabbit, dog, in vivo
Excerpt: Animals that received topical ocular administration of the tromethamine-based suspension were able to tolerate up to higher level of the active agent concentration in the formulation, as compared to equimolar formulations of the sodium phosphate-based Gel Drop.
(§1) Overall, the combination of decreased corneal exposure and corresponding improved ocular tolerability, while simultaneously maintaining or promoting drug delivery to the posterior segment target tissues, along with improved physicochemical stability, will provide greater benefit to patients compared to the ophthalmic Gel Drop formulation.
(§2) Retinal function was normal in all test article and vehicle treated groups during full-field electroretinograms performed in rabbits.

[5] = Ocular toxicology study, twice daily 0.3% Tris-based suspension, 30 days; assay type: in vivo, Dutch-Belted rabbits
[6] = Ocular toxicology study, twice daily 0.3% ophthalmic gel drop: ocular tissue concentrations, electroretinograms; assay type: in vivo, Dutch-Belted rabbits; conditions: 0.3% gel drop formulations with and without benzylalkonium chloride
Excerpt: as §2

KDR (VEGFR-2) = KDR (VEGFR-2) (Homo sapiens, UniProt P35968); test: In vitro inhibition of tyrosine kinases; assay type: biochemical; conditions: 300 nM (170.67 ng/mL)
[7] = 30-day topical ocular tolerability of cyclodextrin-based solutions; assay type: in vivo
HUVECs = test: Inhibition of VEGF-stimulated mitogenesis in HUVECs; assay type: cell-based; conditions: Homo sapiens, HUVEC
[8] = Corneal and choroid exposure compared between formulations (topical ocular dosing); assay type: in vivo, Dutch-belted rabbits
Excerpt: as §1

[9] = Group 2 q.d., 1 hr post day 5 morning dose
[10] = Group 2 q.d., 8 hr post day 5 morning dose
[11] = Group 2 q.d., 24 hr post day 5 morning dose
[12] = Group 3 b.i.d., 1 hr post day 5 morning dose
[13] = Group 3 b.i.d., 24 hr post day 5 morning dose
[14] = Group 4 q.d., 1 hr post day 5 morning dose
[15] = Group 5 q.d., 24 hr post day 1 dose
[16] = Group 6 q.d., 1 hr post day 5 morning dose
[17] = Group 6 q.d., 8 hr post day 5 morning dose
[18] = Group 6 q.d., 24 hr post day 5 morning dose
[19] = Group 7 b.i.d., 1 hr post day 5 morning dose
[20] = Group 11 q.d., 24 hr post day 5 morning dose, n = 1

Chain of KDR (VEGFR-2) (P35968 20-1356): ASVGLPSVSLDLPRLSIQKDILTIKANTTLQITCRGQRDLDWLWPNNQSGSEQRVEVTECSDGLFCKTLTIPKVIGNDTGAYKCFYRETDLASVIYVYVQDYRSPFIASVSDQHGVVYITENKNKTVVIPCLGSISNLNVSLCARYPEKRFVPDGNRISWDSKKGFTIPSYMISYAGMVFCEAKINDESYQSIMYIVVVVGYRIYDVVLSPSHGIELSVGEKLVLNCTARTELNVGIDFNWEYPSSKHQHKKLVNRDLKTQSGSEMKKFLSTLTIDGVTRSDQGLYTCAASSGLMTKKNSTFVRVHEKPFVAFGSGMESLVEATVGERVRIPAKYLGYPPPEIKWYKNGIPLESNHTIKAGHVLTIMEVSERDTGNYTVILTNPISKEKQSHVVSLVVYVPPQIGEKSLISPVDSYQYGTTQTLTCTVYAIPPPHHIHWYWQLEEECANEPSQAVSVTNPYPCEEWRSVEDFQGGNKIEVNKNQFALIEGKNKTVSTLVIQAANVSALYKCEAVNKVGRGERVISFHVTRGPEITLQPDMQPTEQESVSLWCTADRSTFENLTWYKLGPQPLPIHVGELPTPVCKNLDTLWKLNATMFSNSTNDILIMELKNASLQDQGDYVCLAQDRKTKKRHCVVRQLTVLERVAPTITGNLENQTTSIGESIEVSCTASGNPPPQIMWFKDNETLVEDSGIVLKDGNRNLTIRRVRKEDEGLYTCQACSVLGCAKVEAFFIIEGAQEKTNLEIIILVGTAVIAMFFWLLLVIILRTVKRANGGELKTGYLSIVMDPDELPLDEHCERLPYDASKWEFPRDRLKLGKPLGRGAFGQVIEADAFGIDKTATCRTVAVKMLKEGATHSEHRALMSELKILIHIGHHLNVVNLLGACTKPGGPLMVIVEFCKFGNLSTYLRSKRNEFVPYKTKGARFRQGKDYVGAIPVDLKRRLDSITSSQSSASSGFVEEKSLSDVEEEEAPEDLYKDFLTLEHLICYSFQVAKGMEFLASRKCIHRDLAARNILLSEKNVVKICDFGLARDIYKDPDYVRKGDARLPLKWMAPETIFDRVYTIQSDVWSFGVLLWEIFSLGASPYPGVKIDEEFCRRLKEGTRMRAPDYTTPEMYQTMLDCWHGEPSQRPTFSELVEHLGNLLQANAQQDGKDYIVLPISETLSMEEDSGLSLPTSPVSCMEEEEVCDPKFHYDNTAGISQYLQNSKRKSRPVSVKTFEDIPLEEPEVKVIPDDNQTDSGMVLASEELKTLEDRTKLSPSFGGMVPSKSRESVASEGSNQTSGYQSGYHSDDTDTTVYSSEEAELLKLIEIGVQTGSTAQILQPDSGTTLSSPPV

SMILES: Cl.NC(=O)c1c(OCc2c(F)cc(Br)cc2F)nsc1NC(=O)NCCCCN1CCCC1 [Compound-I, 3-[(4-bromo-2,6-difluorophenyl)methoxy]-5-[[[[4-(1-pyrrolidinyl)butyl]amino]carbonyl]amino]-4-isothiazolecarboxamide hydrochloride]
- tolerability [1]: well-tolerated
- concentration at 24 h ([2]; Dutch Belted, rabbit, cornea, topical, 30 μL bilateral, Group 2 q.d., 24 hr post day 5 morning dose): 29.7 µM
- Average Concentration, Peripheral Choroid ([2]; Group 1 q.d., 0.5 hr post day 1 dose, LLOQ = 0.0349 μM): <LLOQ
- Average Concentration, Central Retina ([2]; Group 1 q.d., 1 hr post day 1 dose, LLOQ = 0.0181 μM): <LLOQ
- Average Concentration, Peripheral Choroid ([2]; Group 1 q.d., 1 hr post day 1 dose, n = 1): *0.0856 μM
- Average Concentration, Central Retina ([2]; Group 1 q.d., 24 hr post day 1 dose, LLOQ = 0.0181 μM): <LLOQ
- concentration at 24 h ([2]; Group 1 q.d., 24 hr post day 1 dose, read-out: Average Concentration, Cornea): 6.94 µM
- Average Concentration, Aqueous Humor [2, 9]: 0.00996 µM
- Average Concentration, Peripheral Choroid [2, 9]: 0.737 µM
- Average Concentration, Central Choroid ([2]; Group 2 q.d., 1 hr post day 5 morning dose, n = 1): *0.207 μM
- concentration at 24 h ([2]; Group 2 q.d., 1 hr post day 5 morning dose, read-out: Average Concentration, Cornea): 112 µM
- Average Concentration, Aqueous Humor [2, 10]: 0.0165 µM
- Average Concentration, Peripheral Choroid [2, 10]: 0.687 µM
- Average Concentration, Central Choroid ([2]; Group 2 q.d., 8 hr post day 5 morning dose, n = 1): *0.237 μM
- concentration at 24 h ([2]; Group 2 q.d., 8 hr post day 5 morning dose, read-out: Average Concentration, Cornea): 32.7 µM
- Average Concentration, Aqueous Humor [2, 11]: 0.00336 µM
- Average Concentration, Peripheral Choroid [2, 11]: 1.14 µM
- Average Concentration, Peripheral Retina [2, 11]: 0.380 µM
- Average Concentration, Central Retina ([2]; Group 2 q.d., 24 hr post day 5 morning dose, LLOQ = 0.0181 μM): <LLOQ
- Average Concentration, Central Choroid ([2]; Group 2 q.d., 24 hr post day 5 morning dose, n = 1): *0.205 μM
- Average Concentration, Aqueous Humor [2, 12]: 0.0142 µM
- Average Concentration, Central Choroid [2, 12]: 0.255 µM
- concentration at 24 h ([2]; Group 3 b.i.d., 1 hr post day 5 morning dose, read-out: Average Concentration, Cornea): 151 µM
- Average Concentration, Aqueous Humor [2, 13]: 0.00774 µM
- Average Concentration, Peripheral Retina [2, 13]: 0.0597 µM
- concentration at 24 h ([2]; Group 3 b.i.d., 24 hr post day 5 morning dose, read-out: Average Concentration, Cornea): 82.1 µM
- Average Concentration, Aqueous Humor [2, 14]: 0.00996 µM
- Average Concentration, Central Retina [2, 14]: 0.0431 µM
- Average Concentration, Peripheral Choroid [2, 14]: 0.629 µM
- Average Concentration, Peripheral Retina [2, 14]: 0.0883 µM
- concentration at 24 h ([2]; Group 4 q.d., 1 hr post day 5 morning dose, read-out: Average Concentration, Cornea): 78.7 µM
- Average Concentration, Aqueous Humor ([2]; Group 5 q.d., 0.5 hr post day 1 dose, LLOQ = 0.000903 μM): <LLOQ
- Average Concentration, Central Retina ([2]; Group 5 q.d., 0.5 hr post day 1 dose, LLOQ = 0.0181 μM): <LLOQ
- Average Concentration, Peripheral Choroid ([2]; Group 5 q.d., 0.5 hr post day 1 dose, LLOQ = 0.0349 μM): <LLOQ
- concentration at 24 h ([2]; Group 5 q.d., 0.5 hr post day 1 dose, read-out: Average Concentration, Cornea): 21.0 µM
- Average Concentration, Peripheral Retina ([2]; Group 5 q.d., 1 hr post day 1 dose): 0.0253 µM
- Average Concentration, Peripheral Retina ([2]; Group 5 q.d., 2 hr post day 1 dose): 0.0253 µM
- concentration at 24 h ([2]; Group 5 q.d., 8 hr post day 1 dose, read-out: Average Concentration, Cornea): 7.74 µM
- Average Concentration, Aqueous Humor [2, 15]: 0.00228 µM
- Average Concentration, Peripheral Choroid [2, 15]: 0.116 µM
- Average Concentration, Central Retina ([2]; Group 5 q.d., 24 hr post day 1 dose, LLOQ = 0.0181 μM): <LLOQ
- Average Concentration, Peripheral Retina ([2]; Group 5 q.d., 24 hr post day 1 dose, n = 1): *0.0103 μM
- concentration at 24 h ([2]; Group 5 q.d., 24 hr post day 1 dose, read-out: Average Concentration, Cornea): 2.43 µM
- Average Concentration, Aqueous Humor [2, 16]: 0.00323 µM
- Average Concentration, Central Choroid [2, 16]: 0.319 µM
- Average Concentration, Central Retina [2, 16]: 0.0463 µM
- Average Concentration, Peripheral Choroid [2, 16]: 0.311 µM
- Average Concentration, Peripheral Retina [2, 16]: 0.0634 µM
- concentration at 24 h ([2]; Group 6 q.d., 1 hr post day 5 morning dose, read-out: Average Concentration, Cornea): 21.8 µM
- Average Concentration, Aqueous Humor [2, 17]: 0.00742 µM
- Average Concentration, Central Retina [2, 17]: 0.0537 µM
- Average Concentration, Peripheral Choroid [2, 17]: 0.257 µM
- concentration at 24 h ([2]; Group 6 q.d., 8 hr post day 5 morning dose, read-out: Average Concentration, Cornea): 9.10 µM
- Average Concentration, Aqueous Humor [2, 18]: 0.00122 µM
- Average Concentration, Peripheral Choroid [2, 18]: 0.343 µM
- Average Concentration, Peripheral Retina [2, 18]: 0.0533 µM
- concentration at 24 h ([2]; Group 6 q.d., 24 hr post day 5 morning dose, read-out: Average Concentration, Cornea): 2.33 µM
- Average Concentration, Aqueous Humor [2, 19]: 0.00648 µM
- Average Concentration, Central Choroid [2, 19]: 0.514 µM
- Average Concentration, Central Retina [2, 19]: 0.0469 µM
- Average Concentration, Peripheral Choroid [2, 19]: 0.744 µM
- Average Concentration, Peripheral Retina [2, 19]: 0.0819 µM
- Average Concentration, Aqueous Humor [2, 20]: *0.00205 μM
- Average Concentration, Central Choroid [2, 20]: *0.179 μM
- Average Concentration, Central Retina [2, 20]: *0.0185 μM
- Average Concentration, Central Choroid ([3]; Group 5a q.d., 1 hr after first daily dose on day 5, n = 1): *0.199 μM
- Average Concentration, Central Retina ([3]; Group 5b q.d., 24 hr after first daily dose on day 4): <LLOQ
- Average Concentration, Central Retina ([3]; Group 6b q.d., 24 hr after first daily dose on day 4): <LLOQ
- Average Concentration, Central Choroid ([3]; Group 6b q.d., 24 hr after first daily dose on day 4, n = 1): *0.218 μM
- Average Concentration, Central Choroid ([3]; Group 7 q.d., 1 hr after first daily dose on day 5, LLOQ = 0.174 μM): <LLOQ
- Average Concentration, Central Choroid ([3]; Group 8 q.d., 1 hr after first daily dose on day 5, n = 1): *0.210 μM
- Average Concentration, Central Choroid ([3]; Group 9 b.i.d., 1 hr after first daily dose on day 5, n = 1): *0.287 μM
- solubility provided (clinical dose strengths) (Solubility; HP-β-CD (KLEPTOSE HPB) at equal to or more than 1:6 molar ratio): 0.1-1.0%
- solubility provided (clinical dose strengths) (Solubility; SBE-β-CD (CAPTISOL) at equal to or more than 1:2 ratio): 0.1-1.0%
- Solubility (Solubility; pH 7.5 (0.05M NaH2PO4)): 1000 µg/mL
- Solubility (Solubility; pH 9.0 (0.05 m Na2HPO4)): 700 µg/mL
- cornea concentration above which ocular side effects were more consistently observed [4]: exceeded 100 μM
- eyes at microscopic evaluation ([5]; 0.3% w/v Tris-based suspension twice daily for 30 days): considered normal
- tolerability, clinical ophthalmic examinations ([5]; rabbit, in vivo): well tolerated
- Mean ocular tissue concentration, peripheral retina [6]: 0.150 to 0.3091 µM
- VEGFR-2 kinase function (KDR (VEGFR-2)): completely inhibited
- findings attributed to test-article or vehicle ([7]; 0.6% cyclodextrin-based solution, 30 days of topical ocular dosing): no untoward findings
- ocular toxicity, clinical ophthalmic or microscopic examinations ([7]; rabbit, in vivo): No overt ocular toxicity
- tolerability ([7]; rabbit, in vivo): well tolerated
- IC50 (HUVECs): 14.1 nM and 0.008 µg/mL
- reduction in corneal concentrations versus equimolar Gel Drop ([8]; cyclodextrin-based solutions, 1 to 30 days dosing, Dutch-belted rabbits): ~10 ×
- clinical or histopathologic findings ([8]; ophthalmic solution, repeated topical ocular dosing, rabbits and dogs): free of untoward clinical or histopathologic findings
- target therapeutic exposure in the central choroid versus equimolar ophthalmic gel drop ([8]; ophthalmic solution, topical ocular dosing): equal or higher
- corneal concentrations, Gel Drop compared to Tris-based suspensions ([8]; rabbit, in vivo): fifty-fold to hundred-fold higher
- corneal concentrations, Gel Drop compared to cyclodextrin based solution ([8]; rabbit, in vivo): five-fold to fifteen-fold higher
- reduction of exposure (cornea) ([8]; suspension-based and cyclodextrin formulations): 10-100 ×
